Measured values reported in patent US20240182407A1, “QUINOLINE COMPOUND SALT OR CRYSTAL FORM, PREPARATION METHOD THEREFOR, AND APPLICATION THEREOF” (Nanjing Zenshine Pharmaceuticals Co., Ltd., priority 2021, published 2024).
“And” between values parts separate entries of the source, which are not always exact repeats. Equal entries are not always repeated. Where two headings read alike, the source gives them in different places.

Legend:
[1] = Dynamic water desorption analysis (DVS), hygroscopicity; format: physicochemical
Method: (§1) The instrument model used for DVS analysis was IGA Sorp (Hidentity Isochema). The sample was measured in a gradient mode, the humidity range for the test was from 0% to 90%, and the humidity increment of each gradient was 10%. The time to keep at each humidity gradient was from 30 min to 2 h.
It was determined by NMR and TGA that the sample had essentially no weight loss and no solvent residue before decomposition.
as §1, with “Sample 3 was taken as an example for dynamic water desorption analysis (DVS) characterization. The instrument” for “The instrument”

[2] = Solid stability, 40° C./75% RH and 60° C., one week (HPLC purity, XRPD); format: physicochemical
Method: Appropriate amounts of Compound A and p-toluenesulfonate of Compound A (Sample 5, crystal form I) were respectively placed in 40° C./75% RH and 60° C. environments for one week to determine solid stability. At days 0 and 7, HPLC purity analysis and solid XRPD determination were carried out, and some of the results were as shown in Table 7.

[3] = Solubility in organic solvents; format: physicochemical; conditions: organic solvent or mixture
Excerpt: Therefore, these two solvents were taken, for example, as good solvents and subjected to anti-solvent precipitation experiments.

PI3Kβ (p110β) = PI3Kβ (p110β) (Homo sapiens, UniProt P42338); test: ADP-Glo kinase inhibition, PI3Kβ; conditions: read-out: IC50 PI3Kβ Biochemical
PI3Kβ (p110β), sequence (P42338 whole entry): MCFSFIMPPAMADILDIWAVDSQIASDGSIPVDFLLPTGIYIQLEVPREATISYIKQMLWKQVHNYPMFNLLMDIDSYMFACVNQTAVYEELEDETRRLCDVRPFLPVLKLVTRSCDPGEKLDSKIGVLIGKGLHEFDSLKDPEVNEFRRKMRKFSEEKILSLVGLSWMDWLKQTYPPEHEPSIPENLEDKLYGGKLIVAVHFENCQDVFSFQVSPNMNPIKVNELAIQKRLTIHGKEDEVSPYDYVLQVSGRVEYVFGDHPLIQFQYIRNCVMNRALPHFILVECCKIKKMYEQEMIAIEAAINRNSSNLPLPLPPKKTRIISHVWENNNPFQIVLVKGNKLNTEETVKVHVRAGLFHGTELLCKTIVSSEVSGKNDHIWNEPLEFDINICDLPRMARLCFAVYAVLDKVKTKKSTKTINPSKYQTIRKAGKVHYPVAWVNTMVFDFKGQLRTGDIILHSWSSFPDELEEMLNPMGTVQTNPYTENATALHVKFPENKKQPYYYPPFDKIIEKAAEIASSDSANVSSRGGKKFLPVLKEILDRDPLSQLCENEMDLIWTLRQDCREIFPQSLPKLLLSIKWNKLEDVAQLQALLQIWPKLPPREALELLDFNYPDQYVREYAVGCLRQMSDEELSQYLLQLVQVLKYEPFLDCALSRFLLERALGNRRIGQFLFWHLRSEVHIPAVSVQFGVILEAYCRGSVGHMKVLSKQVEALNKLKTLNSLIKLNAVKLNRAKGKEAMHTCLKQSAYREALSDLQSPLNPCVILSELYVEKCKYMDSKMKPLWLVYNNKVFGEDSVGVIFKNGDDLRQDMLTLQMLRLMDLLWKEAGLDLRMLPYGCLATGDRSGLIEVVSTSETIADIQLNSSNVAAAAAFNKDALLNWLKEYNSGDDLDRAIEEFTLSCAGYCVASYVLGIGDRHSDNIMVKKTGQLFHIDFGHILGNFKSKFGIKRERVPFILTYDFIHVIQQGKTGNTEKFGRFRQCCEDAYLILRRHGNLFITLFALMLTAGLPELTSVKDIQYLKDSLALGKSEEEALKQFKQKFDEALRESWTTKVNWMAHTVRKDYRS
Method: (§2) In Example 7, the inhibitory effects of Sample 6 prepared in Example 6 above on kinases PI3Kα, PI3Kβ, PI3Kγ and PI3Kδ were tested.
(§3) The kinases used in the experiment were respectively purchased from: • PI3Kα (p110α/p85α), purchased from Invitrogen, under Cat. No. PV4788; • PI3Kβ (p110β), purchased from eurofins, under Cat. No. 14-603M; • PI3Kδ (p110δ/p85a), purchased from Invitrogen, under Cat. No. PV6452; and • PI3Kγ (p110γ), purchased from Invitrogen, under Cat. No. PR8641C. • Firstly, a 1× kinase buffer solution was prepared, which comprised: • 50 mM HEPES, pH 7.5 • 3 mM MgCl2 • 1 mM EGTA • 100 mM NaCl • 0.03% CHAPS • 2 mM DTT
(§4) On kinases PI3Kα, PI3Kβ and PI3Kγ, the final detection concentration of the compound was 10 μM. 100× concentration was prepared, i.e., 1000 μM. 90 μL of 100% DMSO was added to the second well in row A on a 96-well plate, 10 μL of a 10 mM compound solution was then added, and 3-fold serial dilution was made to obtain a total of 10 concentrations.
(§5) 50 μL of 100% DMSO was transferred to two empty wells as Max well and Min well, respectively.
(§6) 50 nL of the compound was transferred into a 384-well plate using ECHO550.
(§7) Preparation of 2× kinase solution: the kinase was added to a 1× kinase buffer to prepare a 2× enzyme solution. […]
(§8) Finally, the chemiluminescence values were read from Envision 2104 Multi-label Reader and subjected to curve fitting, and IC50 was calculated.

PI3Kα (p110α/p85α) = biological target: T1, PI3Kα (p110α/p85α) (Homo sapiens, UniProt P42336); test: ADP-Glo kinase inhibition, PI3Kα; conditions: read-out: IC50 PI3Kα Biochemical
T1 construct: purchased Invitrogen PV4788
T1 sequence (P42336 whole entry): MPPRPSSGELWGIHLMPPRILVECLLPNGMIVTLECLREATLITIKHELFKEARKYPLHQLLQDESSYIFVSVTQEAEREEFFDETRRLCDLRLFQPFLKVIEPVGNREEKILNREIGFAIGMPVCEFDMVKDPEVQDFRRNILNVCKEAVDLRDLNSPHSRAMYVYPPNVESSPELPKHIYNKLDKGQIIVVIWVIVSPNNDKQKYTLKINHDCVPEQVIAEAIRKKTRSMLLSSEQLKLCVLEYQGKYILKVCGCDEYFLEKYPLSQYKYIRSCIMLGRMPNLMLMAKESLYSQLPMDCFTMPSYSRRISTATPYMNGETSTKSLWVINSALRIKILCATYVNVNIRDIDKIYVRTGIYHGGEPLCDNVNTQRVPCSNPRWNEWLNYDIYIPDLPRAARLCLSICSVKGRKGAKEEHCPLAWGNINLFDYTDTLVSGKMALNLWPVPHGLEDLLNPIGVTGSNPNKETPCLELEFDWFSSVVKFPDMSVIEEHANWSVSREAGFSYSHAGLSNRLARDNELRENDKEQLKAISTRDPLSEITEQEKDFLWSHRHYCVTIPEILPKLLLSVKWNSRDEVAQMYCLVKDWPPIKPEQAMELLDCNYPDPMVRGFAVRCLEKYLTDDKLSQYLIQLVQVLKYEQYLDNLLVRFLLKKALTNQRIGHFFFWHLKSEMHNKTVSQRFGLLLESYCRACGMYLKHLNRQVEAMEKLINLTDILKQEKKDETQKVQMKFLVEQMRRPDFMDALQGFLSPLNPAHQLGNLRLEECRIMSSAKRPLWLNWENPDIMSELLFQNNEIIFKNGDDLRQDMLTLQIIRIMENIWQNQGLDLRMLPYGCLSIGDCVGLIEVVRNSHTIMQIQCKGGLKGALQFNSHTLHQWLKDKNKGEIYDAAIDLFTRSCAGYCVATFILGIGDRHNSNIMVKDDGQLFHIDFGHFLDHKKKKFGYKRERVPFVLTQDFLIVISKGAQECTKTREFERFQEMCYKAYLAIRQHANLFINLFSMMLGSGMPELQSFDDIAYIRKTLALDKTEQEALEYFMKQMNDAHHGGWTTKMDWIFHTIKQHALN
T1 sequence (P27986 whole entry partner): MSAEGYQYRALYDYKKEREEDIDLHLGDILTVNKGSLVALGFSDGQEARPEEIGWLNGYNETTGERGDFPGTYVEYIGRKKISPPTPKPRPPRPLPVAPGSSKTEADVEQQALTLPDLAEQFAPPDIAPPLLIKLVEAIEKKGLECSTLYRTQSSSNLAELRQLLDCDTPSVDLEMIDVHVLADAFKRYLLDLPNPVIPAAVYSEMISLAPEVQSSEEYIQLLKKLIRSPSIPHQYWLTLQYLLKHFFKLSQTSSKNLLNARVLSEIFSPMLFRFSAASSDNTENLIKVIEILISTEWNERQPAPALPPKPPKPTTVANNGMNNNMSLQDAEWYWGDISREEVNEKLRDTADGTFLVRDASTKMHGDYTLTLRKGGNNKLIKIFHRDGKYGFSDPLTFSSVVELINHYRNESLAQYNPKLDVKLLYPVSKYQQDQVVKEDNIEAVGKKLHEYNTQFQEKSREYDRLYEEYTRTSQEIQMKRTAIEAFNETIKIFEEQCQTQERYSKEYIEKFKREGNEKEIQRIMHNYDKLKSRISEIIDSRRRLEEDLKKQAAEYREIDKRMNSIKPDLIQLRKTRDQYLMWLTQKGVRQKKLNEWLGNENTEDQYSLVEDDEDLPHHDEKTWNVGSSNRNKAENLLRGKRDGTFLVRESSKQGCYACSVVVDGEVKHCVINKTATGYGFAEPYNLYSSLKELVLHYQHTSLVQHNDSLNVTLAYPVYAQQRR
Method: as §2, §3, §4, §5, §6, §7, §8

PI3Kα = biological target: T2, PI3Kα (Mus musculus, UniProt P42337); test: Akt phosphorylation in C2Cl2 cells stimulated by IGF-1 (AlphaLISA); conditions: phosphorylation of Akt, C2C12 cells, read-out: IC50 PI3Kα Cell-based
T2 construct: host or cells: C2C12 cells
T2 sequence (P42337 whole entry): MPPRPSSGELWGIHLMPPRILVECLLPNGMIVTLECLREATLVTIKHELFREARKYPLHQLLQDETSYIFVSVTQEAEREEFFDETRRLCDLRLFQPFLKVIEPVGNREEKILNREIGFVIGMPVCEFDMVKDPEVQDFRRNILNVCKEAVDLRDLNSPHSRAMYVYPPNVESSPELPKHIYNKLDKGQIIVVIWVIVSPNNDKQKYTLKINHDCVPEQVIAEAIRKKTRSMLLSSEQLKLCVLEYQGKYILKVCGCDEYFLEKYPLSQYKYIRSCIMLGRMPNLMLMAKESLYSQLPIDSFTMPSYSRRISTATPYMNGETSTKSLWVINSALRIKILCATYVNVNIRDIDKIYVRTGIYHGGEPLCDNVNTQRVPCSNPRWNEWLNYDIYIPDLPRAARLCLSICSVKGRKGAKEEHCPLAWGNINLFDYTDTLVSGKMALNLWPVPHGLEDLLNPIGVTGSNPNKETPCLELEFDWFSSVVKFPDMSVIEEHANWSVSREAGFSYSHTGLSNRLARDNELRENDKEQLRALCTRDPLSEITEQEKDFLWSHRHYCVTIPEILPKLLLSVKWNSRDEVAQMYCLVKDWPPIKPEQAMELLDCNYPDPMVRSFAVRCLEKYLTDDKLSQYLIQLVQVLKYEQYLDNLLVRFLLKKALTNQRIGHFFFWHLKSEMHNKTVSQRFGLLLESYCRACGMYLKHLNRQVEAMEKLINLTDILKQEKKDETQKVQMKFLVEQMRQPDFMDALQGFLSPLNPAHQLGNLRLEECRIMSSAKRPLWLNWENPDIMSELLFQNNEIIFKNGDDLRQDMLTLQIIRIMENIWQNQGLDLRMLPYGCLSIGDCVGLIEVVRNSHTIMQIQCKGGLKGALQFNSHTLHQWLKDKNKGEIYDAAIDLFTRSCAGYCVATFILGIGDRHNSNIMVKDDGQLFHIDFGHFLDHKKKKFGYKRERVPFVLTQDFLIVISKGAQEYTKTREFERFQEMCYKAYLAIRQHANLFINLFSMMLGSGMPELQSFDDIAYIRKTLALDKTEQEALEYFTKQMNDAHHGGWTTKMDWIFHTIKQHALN
T2 sequence (P26450 whole entry partner): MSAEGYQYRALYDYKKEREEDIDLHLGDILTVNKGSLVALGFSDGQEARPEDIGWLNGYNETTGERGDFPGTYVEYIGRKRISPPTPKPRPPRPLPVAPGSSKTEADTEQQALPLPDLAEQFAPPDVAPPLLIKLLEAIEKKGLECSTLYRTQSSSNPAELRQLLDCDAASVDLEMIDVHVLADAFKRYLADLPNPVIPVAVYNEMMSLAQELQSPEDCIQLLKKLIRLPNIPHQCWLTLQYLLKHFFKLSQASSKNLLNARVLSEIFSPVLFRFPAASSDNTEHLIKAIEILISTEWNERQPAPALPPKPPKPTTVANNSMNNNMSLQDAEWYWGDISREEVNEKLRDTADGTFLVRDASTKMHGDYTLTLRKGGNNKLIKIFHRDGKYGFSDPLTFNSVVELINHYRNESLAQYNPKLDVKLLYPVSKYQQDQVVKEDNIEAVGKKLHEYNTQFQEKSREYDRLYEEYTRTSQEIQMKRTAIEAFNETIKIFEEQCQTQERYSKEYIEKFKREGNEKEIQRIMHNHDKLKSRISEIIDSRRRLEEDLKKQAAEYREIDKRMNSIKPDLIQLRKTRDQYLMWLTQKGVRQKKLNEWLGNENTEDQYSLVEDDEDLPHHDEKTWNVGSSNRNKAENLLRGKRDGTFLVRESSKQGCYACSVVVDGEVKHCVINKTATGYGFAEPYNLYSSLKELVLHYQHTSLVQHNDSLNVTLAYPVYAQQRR
Method: In addition, taking Sample 6 as an example, the inhibitory effects thereof on PI3Kα, PI3Kβ, PI3Kγ and PI3Kδ in corresponding cells were determined. The activity of PI3Kα was detected by the phosphorylation level of Akt in C2Cl2 cells stimulated by IGF-1, the activity of PI3Kβ was detected by the phosphorylation level of Akt in PC-3 cells stimulated by LPA, the activity of PI3Kγ was detected by the phosphorylation level of Akt in Raw264.7 cells stimulated by c5α, and the activity of PI3Kδ was detected by the phosphorylation level of Akt in Raji cells stimulated by IgM. The phosphorylation level of Akt in cells was determined by means of AlphaLISA technique from PerkinElemer.
The C2C12 cells, PC-3 cells, Raw264.7 cells and Raji cells were all purchased from ATCC.

SU-DHL-6 = test: Proliferation of lymphoma cell line in vitro, SU-DHL-6; format: cell-based; conditions: Homo sapiens, read-out: absolute IC50 (AbsIC50), proliferation
mouse breast cancer 4T1 = test: Mouse breast cancer 4T1 subcutaneous transplantation tumor model; format: in vivo
Excerpt: WT cell subcutaneous transplantation tumor model.

[4] = Crystal form stability under high humidity (XRPD); format: physicochemical; conditions: RT/92.5% RH, 11 days
Excerpt: (§9) In addition, the stability of p-toluenesulfonate crystal form I (Sample 8) under grinding and high humidity conditions was investigated.
For example, the p-toluenesulfonate crystal form I sample was placed at RT/92.5% RH for 11 days and then measured by XRPD.

[5] = Crystal form stability under grinding (XRPD); format: physicochemical; conditions: ground in a mortar for 2 min
Method: as §9
A certain amount of p-toluenesulfonate crystal form I was ground in a mortar for 2 min and then measured by XRPD.

crystal form before and after humidity change (XRPD after DVS) ([1]; 0% to 90% RH): remained unchanged | moisture absorbed (DVS) ([1]; at 90% RH): 0.92% | physical and chemical stability (purity and crystal form) ([2]; 40° C./75% RH and 60° C., 7 days): no change in purity and crystal form | Purity (peak area %) Average - 40° C./75% RH - 7 d ([2]; solid, 40° C./75% RH, 7 d, average, listed as Sample 5): 99.69 peak area % | Purity (peak area %) 40° C./75% RH - 7 d ([2]; solid, 40° C./75% RH, 7 d, single determinations, listed as Sample 5): 99.68 peak area % and 99.69 peak area % | Purity (peak area %) Average - 60° C. - 7 d ([2]; solid, 60° C., 7 d, average, listed as Sample 5): 99.65 peak area % | Purity (peak area %) 60° C. - 7 d ([2]; solid, 60° C., 7 d, single determinations, listed as Sample 5): 99.56 peak area % and 99.74 peak area % | Purity (peak area %) Average - 0 d ([2]; solid, day 0, average, listed as Sample 5): 99.48 peak area % | Purity (peak area %) 0 d ([2]; solid, day 0, single determinations, listed as Sample 5): 99.46 peak area % and 99.49 peak area % | Solubility ([3]; methanol, read-out: solubility in methanol): > 24 mg/mL | Solubility ([3]; tetrahydrofuran, read-out: solubility in tetrahydrofuran): > 11.6 mg/mL | IC50 (PI3Kβ (p110β)): 44 nM | IC50 (PI3Kα (p110α/p85α)): 117 nM | IC50 (PI3Kα): 3.52 µM | IC50 (SU-DHL-6): < 100 nM | crystal form after grinding (XRPD) [5]: still p-toluenesulfonate crystal form I
SMILES: C[C@H](Nc1nc(N)nc(N)c1C#N)c1cc2ccc(F)cc2nc1-c1ccccn1 [p-toluenesulfonate of Compound A]
effect on tumor volume growth (mouse breast cancer 4T1): significant inhibitory effect | crystal form after high humidity (XRPD) [4]: crystal form of the sample did not change
